Experiments:
human factor XIa = human factor XIa (Homo sapiens (Human), UniProt P03951); assay: Measurement of FXIa inhibition (fluorogenic peptide substrate); assay type: biochemical; details: factor XIa from Kordia, substrate Boc-Glu(OBzl)-Ala-Arg-AMC, 22° C., 30 min
Procedure: (§1) The factor XIa inhibition of the substances according to the invention is determined using a biochemical test system which utilizes the reaction of a peptidic factor XIa substrate to determine the enzymatic activity of human factor XIa. Here, factor XIa cleaves from the peptic factor XIa substrate the C-terminal aminomethylcoumarin (AMC), the fluorescence of which is measured. The determinations are carried out in microtitre plates.
1 μl of the diluted substance solutions is placed into each of the wells of white microtitre plates from Greiner (384 wells). […] After 15 min of incubation, the enzyme reaction is started by addition of 20 μl of the factor XIa substrate Boc-Glu(OBzl)-Ala-Arg-AMC dissolved in assay buffer (10 μM in assay buffer) from Bachem, the mixture is incubated at room temperature (22° C.) for 30 min and fluorescence is then measured (excitation: 360 nm, emission: 460 nm). The measured emissions of the test batches with test substance are compared to those of control batches without test substance (only dimethyl sulphoxide instead of test substance in dimethyl sulphoxide), and IC50 values are calculated from the concentration/activity relationships.

human plasma kallikrein = human plasma kallikrein (Homo sapiens (Human), UniProt P03952); assay: Determination of the plasma kallikrein activity (fluorogenic peptide substrate); assay type: biochemical; details: plasma kallikrein from Kordia, substrate H-Pro-Phe-Arg-AMC, 22° C., 30 min
Procedure: as §1, with “To determine the plasma kallikrein” for “The factor XIa”, “invention,” for “invention is determined using”, “system is used” for “system”, “plasma kallikrein” for “factor XIa”, “plasma kallikrein.” for “factor XIa.”
1 μl of the diluted substance solutions is placed into each of the wells of white microtitre plates from Greiner (384 wells). 20 μl of assay buffer (50 mM Tris/HCl pH 7.4; 100 mM sodium chloride solution; 5 mM of calcium chloride solution; 0.1% of bovine serum albumin) and 20 μl of plasma kallikrein from Kordia (0.6 nM in assay buffer) are then added successively. After 15 min of incubation, the enzyme reaction is started by addition of 20 μl of the substrate H-Pro-Phe-Arg-AMC dissolved in assay buffer (10 μM in assay buffer) from Bachem, the mixture is incubated at room temperature (22° C.) for 30 min and fluorescence is then measured (excitation: 360 nm, emission: 460 nm). The measured emissions of the test batches with test substance are compared to those of control batches without test substance (only dimethyl sulphoxide instead of test substance in dimethyl sulphoxide), and IC50 values are calculated from the concentration/activity relationships.

human factor XIa, sequence (P03951 388-625): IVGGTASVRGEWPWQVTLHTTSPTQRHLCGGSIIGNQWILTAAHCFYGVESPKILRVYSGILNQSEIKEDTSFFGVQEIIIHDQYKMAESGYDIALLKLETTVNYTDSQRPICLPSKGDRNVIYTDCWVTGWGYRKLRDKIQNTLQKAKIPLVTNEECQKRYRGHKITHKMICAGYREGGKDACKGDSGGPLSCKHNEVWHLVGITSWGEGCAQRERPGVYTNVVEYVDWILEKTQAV
human factor XIa, sequence (P03951 19-387 partner): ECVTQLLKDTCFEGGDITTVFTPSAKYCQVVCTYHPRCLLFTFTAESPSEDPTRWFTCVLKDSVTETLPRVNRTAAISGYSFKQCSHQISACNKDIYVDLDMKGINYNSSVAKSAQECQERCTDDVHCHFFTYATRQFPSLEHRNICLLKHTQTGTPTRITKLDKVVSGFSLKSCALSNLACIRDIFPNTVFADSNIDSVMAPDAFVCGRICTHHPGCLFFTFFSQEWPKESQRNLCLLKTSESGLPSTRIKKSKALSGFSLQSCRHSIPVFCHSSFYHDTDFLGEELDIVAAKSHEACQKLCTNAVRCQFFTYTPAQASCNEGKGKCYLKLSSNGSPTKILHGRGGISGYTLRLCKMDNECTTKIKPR
human plasma kallikrein, sequence (P03952 391-638): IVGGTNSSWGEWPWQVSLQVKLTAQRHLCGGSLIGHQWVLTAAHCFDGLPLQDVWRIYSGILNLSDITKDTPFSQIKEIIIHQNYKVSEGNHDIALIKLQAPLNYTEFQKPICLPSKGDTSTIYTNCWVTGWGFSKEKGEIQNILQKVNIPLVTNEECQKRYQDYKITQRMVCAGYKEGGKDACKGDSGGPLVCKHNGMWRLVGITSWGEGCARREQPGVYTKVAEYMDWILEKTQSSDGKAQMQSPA
human plasma kallikrein, sequence (P03952 20-390 partner): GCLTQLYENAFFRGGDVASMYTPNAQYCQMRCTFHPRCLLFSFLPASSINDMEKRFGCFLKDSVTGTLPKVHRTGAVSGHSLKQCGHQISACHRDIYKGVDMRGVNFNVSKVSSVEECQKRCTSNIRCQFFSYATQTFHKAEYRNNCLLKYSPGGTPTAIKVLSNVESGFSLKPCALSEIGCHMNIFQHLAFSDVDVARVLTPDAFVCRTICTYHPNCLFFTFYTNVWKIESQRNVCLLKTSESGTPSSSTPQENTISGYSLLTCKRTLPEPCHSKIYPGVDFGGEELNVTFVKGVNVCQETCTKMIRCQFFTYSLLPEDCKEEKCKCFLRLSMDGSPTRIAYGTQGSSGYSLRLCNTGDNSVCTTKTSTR

Row | Structure (SMILES) | IC50 (human factor XIa) | IC50 (human plasma kallikrein)
1 | COc1cn(C(Cc2ccncc2)C(=O)Nc2cc(F)c(C(N)=O)s2)c(=O)cc1-c1cc(Cl)ccc1C#N (racemic) [Example 4, 5-({2-[4-(5-Chloro-2-cyanophenyl)-5-methoxy-2-oxopyridin-1(2H)-yl]-3-(pyridin-4-yl)propanoyl}-amino)-3-fluorothiophene-2-carboxamide (racemate)] | 0.029 µM | 0.036 µM
2 | COc1cn(C(Cc2ccccn2)C(=O)Nc2cc(F)c(C(N)=O)s2)c(=O)cc1-c1cc(Cl)ccc1C#N (racemic) [Example 3, 5-({2-[4-(5-Chloro-2-cyanophenyl)-5-methoxy-2-oxopyridin-1(2H)-yl]-3-(pyridin-2-yl)propanoyl}-amino)-3-fluorothiophene-2-carboxamide (racemate)] | 0.034 µM | –
3 | COCCC(C(=O)Nc1ccc(C(=O)O)s1)n1cc(OC)c(-c2cc(Cl)ccc2C#N)cc1=O (racemic) [Example 7, 5-({2-[4-(5-Chloro-2-cyanophenyl)-5-methoxy-2-oxopyridin-1(2H)-yl]-4-methoxybutanoyl}amino)-thiophene-2-carboxylic acid (racemate)] | 0.003 µM | –
4 | COc1cn(C(Cc2ccccn2)C(=O)Nc2ccc(C(=O)O)s2)c(=O)cc1-c1cc(Cl)ccc1C#N (racemic) [Example 18, 5-({2-[4-(5-Chloro-2-cyanophenyl)-5-methoxy-2-oxopyridin-1(2H)-yl]-3-(pyridin-2-yl)propanoyl}-amino)thiophene-2-carboxylic acid (racemate)] | 0.0026 µM | –
5 | CNC(=O)c1ccc(NC(=O)C(Cc2ccn(C)n2)n2cc(OC)c(-c3cc(Cl)ccc3C#N)cc2=O)s1 (single isomer, unassigned; enantiomer 1) [Example 16, 5-({2-[4-(5 -Chloro-2-cyanophenyl)-5-methoxy-2-oxopyridin-1(2H)-yl]-3-(1-methyl-1H-pyrazol-3-yl)propanoyl}amino)-N-methylthiophene-2-carboxamide (enantiomer 1)] | 0.0028 µM | 0.0015 µM
6 | COCCC(C(=O)Nc1cc(F)c(C(N)=O)s1)n1cc(OC)c(-c2cc(Cl)ccc2C#N)cc1=O (single isomer, unassigned; enantiomer 1) [Example 10, 5-({2-[4-(5-Chloro-2-cyanophenyl)-5-methoxy-2-oxopyridin-1(2H)-yl]-4-methoxybutanoyl}-amino)-3-fluorothiophene-2-carboxamide (enantiomer 1)] | 0.027 µM | 0.047 µM
7 | COc1cn(C(Cc2ccccn2)C(=O)Nc2cc(F)c(C(N)=O)s2)c(=O)cc1-c1cc(Cl)ccc1F (racemic) [Example 6, 5-({2-[4-(5-Chloro-2-fluorophenyl)-5-methoxy-2-oxopyridin-1(2H)-yl]-3-(pyridin-2-yl)propanoyl}-amino)-3-fluorothiophene-2-carboxamide (racemate)] | 1.2 µM | > 10 µM
8 | CNC(=O)c1ccc(NC(=O)C(Cc2ccn(C)n2)n2cc(OC)c(-c3cc(Cl)ccc3C#N)cc2=O)s1 (racemic) [Example 15, 5-({2-[4-(5-Chloro-2-cyanophenyl)-5-methoxy-2-oxopyridin-1(2H)-yl]-3-(1-methyl-1H-pyrazol-3-yl)propanoyl}amino)-N-methylthiophene-2-carboxamide (racemate)] | 0.0054 µM | 0.0016 µM
9 | COCCC(C(=O)Nc1ccc(C(=O)O)s1)n1cc(Cl)c(-c2cc(Cl)ccc2C#N)cc1=O (racemic) [Example 19, 5-({2-[5-Chloro-4-(5-chloro-2-cyanophenyl)-2-oxopyridin-1(2H)-yl]-4-methoxybutanoyl}amino)-thiophene-2-carboxylic acid (racemate)] | 0.0069 µM | 0.047 µM
10 | COCCC(C(=O)Nc1cc(F)c(C(N)=O)s1)n1cc(OC)c(-c2cc(Cl)ccc2C#N)cc1=O (racemic) [Example 9, 5-({2-[4-(5-Chloro-2-cyanophenyl)-5-methoxy-2-oxopyridin-1(2H)-yl]-4-methoxybutanoyl}amino)-3-fluorothiophene-2-carboxamide (racemate)] | 0.054 µM | 0.1 µM
11 | CNC(=O)c1ccc(NC(=O)C(Cc2cnco2)n2cc(OC)c(-c3cc(Cl)ccc3C#N)cc2=O)s1 (racemic) [Example 17, 5-({2-[4-(5-Chloro-2-cyanophenyl)-5-methoxy-2-oxopyridin-1(2H)-yl]-3-(1,3-oxazol-5-yl)-propanoyl}amino)-N-methylthiophene-2-carboxamide (racemate)] | 0.0062 µM | –
12 | COCCC(C(=O)Nc1ccc(C(N)=O)s1)n1cc(Cl)c(-c2cc(Cl)ccc2C#N)cc1=O (racemic) [Example 2, 5-({2-[5-Chloro-4-(5-chloro-2-cyanophenyl)-2-oxopyridin-1(2H)-yl]-4-methoxybutanoyl}amino)-thiophene-2-carboxamide (racemate)] | 0.026 µM | 0.028 µM

— patent US10071995B2, “Substituted oxopyridine derivatives” (BAYER PHARMA AKTIENGESELLSCHAFT, priority 2014, dated 2018)
